Laboratory results: patent US20240327801A1, “EFFICIENT CELL CULTURE SYSTEM FOR HEPATITIS C VIRUS GENOTYPE 4a” (Hvidovre Hospital, priority 2021, published 2024)
Like-named read-outs stand apart in the source and are kept apart here.

Columns and labels:
[1] = system: ED43-virus; assay type: cell-based, hepatitis C virus genotype 4a
[2] = system: original ED43 virus (HCV genotype 4a full-length culture virus); test: concentration-response (EC50) assay, original virus; conditions: Hepatitis C virus, Huh7.5, 48 h, read-out: EC50 (nM [95% CI])
Procedure: Huh7.5 cells were seeded on 96-well plates overnight, then infected with the indicated viruses for 24 hours. The cells were subsequently treated with specific inhibitors for an additional 48 hours before analysis as described (Pham et al. 2018; Gottwein et al. 2011). Values are means of triplicates±SEM. The original D43 virus was used in these two experiments as a control. TN (1a) virus was included for comparison.
Huhu7.5 cells were seeded on 96-well plates overnight, then infected with the indicated viruses for 24 hours. The cells were subsequently treated with specific inhibitors for an additional 48 hours before analysis as described (Pham et al. 2018; Gottwein et al. 2011). Values are means of triplicates±SEM. The original ED43 virus was used as a control. TN (1a) virus was included for comparison.
For concentration-response assays using described methods (Pham et al. 2018; Ramirez et al. 2016; Ramirez et al. 2014), stocks of non-treated and of single-treatment escape viruses were prepared. […] The half-maximal effective concentration (EC50) value was calculated using GraphPad Prism 6.

[3] = system: SOFesc virus (ED43 sofosbuvir escape virus); test: microbe, parasite or virus in culture; assay type: cell-based; conditions: Hepatitis C virus, Huh7.5 cells, 48 hours treatment, read-out: EC50 (nM [95% CI])

In the case of `COC(=O)N[C@H](C(=O)N1CCC[C@H]1c1nc2cc([C@H]3CC[C@H](c4cc5nc([C@@H]6CCCN6C(=O)[C@@H](NC(=O)OC)[C@@H](C)OC)[nH]c5cc4F)N3c3cc(F)c(N4CCC(c5ccc(F)cc5)CC4)c(F)c3)c(F)cc2[nH]1)[C@@H](C)OC` [pibrentasvir], the viral escape ([1]; 5×EC50) is reported as ≤ 33 days and the treatment outcome ([1]; 10×EC50) is reported as “viral eradication”.

In the case of `COC(=O)N[C@H](C(=O)N1CC2(CC2)C[C@H]1c1nc(-c2ccc3c(c2)C(F)(F)c2cc(-c4ccc5[nH]c([C@@H]6[C@H]7CC[C@H](C7)N6C(=O)[C@@H](NC(=O)OC)C(C)C)nc5c4)ccc2-3)c[nH]1)C(C)C` [ledipasvir], the “emergence of main RASs responsible for ED43 escape” value (from here on “emergence of main RASs responsible”) ([1]; 100×EC50) is reported as 5 days.

For `CC(C)OC(=O)[C@H](C)N[P@](=O)(OC[C@H]1O[C@@H](n2ccc(=O)[nH]c2=O)[C@](C)(F)[C@@H]1O)Oc1ccccc1` [sofosbuvir], the EC50 [2] was 668 nM, the viral escape ([1]; 2×EC50 (initiated at 1×EC50, increased at day 9)) was 77 days and the EC50 [3] was 2250 nM.

In the case of `Cc1cnc(C(=O)N[C@H]2CCCCC/C=C\[C@@H]3C[C@@]3(C(=O)NS(=O)(=O)C3CC3)NC(=O)[C@@H]3C[C@@H](Oc4nc5ccccc5c5ccccc45)CN3C2=O)cn1` [paritaprevir], the “emergence of RAS NS3P-D168E after treatment initiation” value ([1]; 8×EC50) is reported as 7 days and the “viral escape / viral spread under treatment” value ([1]; 8×EC50) is reported as 16 days.

With `COC(=O)N[C@H](C(=O)N1CCC[C@H]1C(=O)Nc1ccc([C@@H]2CC[C@@H](c3ccc(NC(=O)[C@@H]4CCCN4C(=O)[C@@H](NC(=O)OC)C(C)C)cc3)N2c2ccc(C(C)(C)C)cc2)cc1)C(C)C` [ombitasvir] the “emergence of main RASs responsible” value ([1]; 100×EC50) was 5 days.

For `COC(=O)N[C@H](C(=O)N1CCC[C@H]1c1nc(-c2ccc3c(c2)O[C@@H](c2ccccc2)n2c-3cc3cc(-c4c[nH]c([C@@H]5CCCN5C(=O)[C@@H](NC(=O)OC)C(C)C)n4)ccc32)c[nH]1)C(C)C` [elbasvir], the “emergence of main RASs responsible” value ([1]; 100×EC50) was 5 days.

In the case of `COC[C@H]1C[C@@H](c2nc(-c3ccc4c(c3)COc3cc5c(ccc6nc([C@@H]7CC[C@H](C)N7C(=O)[C@@H](NC(=O)OC)C(C)C)[nH]c65)cc3-4)c[nH]2)N(C(=O)[C@H](NC(=O)OC)c2ccccc2)C1` [velpatasvir], the viral escape ([1]; 100×EC50) is reported as “did not observe viral escape”.
